The target in assay [1] is Serine--tRNA ligase (Escherichia coli (strain K12)) (UniProt P0A8L1). Put plainly: Inhibition of recombinant Escherichia coli BL21(DE3) seryl-tRNA synthetase expressed in Escherichia coli Rosetta 2 (DE3) assessed as reduction in tRNA aminoacylation at 1 uM preincubated for 10 mins in presence of [14C]-serine and tRNA and iPPase followed by ATP addition by scintillation counting method relative to control.

Assay [2] shares this target. In words: Inhibition of recombinant Escherichia coli BL21(DE3) seryl-tRNA synthetase expressed in Escherichia coli Rosetta 2 (DE3) assessed as reduction in tRNA aminoacylation at 0.1 uM preincubated for 10 mins in presence of [14C]-serine and tRNA and iPPase followed by ATP addition by scintillation counting method relative to control.
Assay [3] concerns Escherichia coli BL21(DE3). In words: Inhibition of recombinant Escherichia coli BL21(DE3) aspartyl-tRNA synthetase expressed in Escherichia coli Rosetta 2 (DE3) assessed as reduction in tRNA aminoacylation at 1 uM preincubated for 10 mins in presence of [14C]-aspartate and tRNA and iPPase followed by ATP addition by scintillation counting method.
A short description of assay [4]: Inhibition of recombinant Escherichia coli BL21(DE3) aspartyl-tRNA synthetase expressed in Escherichia coli Rosetta 2 (DE3) assessed as reduction in tRNA aminoacylation preincubated for 10 mins in presence of [14C]-aspartate and tRNA and iPPase followed by ATP addition by scintillation counting method.
Assay [5] deals with Escherichia coli BL21(DE3). In words: Inhibition of recombinant Escherichia coli BL21(DE3) aspartyl-tRNA synthetase expressed in Escherichia coli Rosetta 2 (DE3) assessed as reduction in tRNA aminoacylation at 0.1 uM preincubated for 10 mins in presence of [14C]-aspartate and tRNA and iPPase followed by ATP addition by scintillation counting method relative to control.
Assay [6] deals with Escherichia coli BL21(DE3). Put plainly: Inhibition of recombinant Escherichia coli BL21(DE3) aspartyl-tRNA synthetase expressed in Escherichia coli Rosetta 2 (DE3) assessed as reduction in tRNA aminoacylation at 10 nM preincubated for 10 mins in presence of [14C]-aspartate and tRNA and iPPase followed by ATP addition by scintillation counting method.
The target of assay [7] is Serine--tRNA ligase (Escherichia coli (strain K12)) (UniProt P0A8L1). Put plainly: Inhibition of recombinant Escherichia coli BL21(DE3) seryl-tRNA synthetase expressed in Escherichia coli Rosetta 2 (DE3) assessed as reduction in tRNA aminoacylation at 10 uM preincubated for 10 mins in presence of [14C]-serine and tRNA and iPPase followed by ATP addition by scintillation counting method relative to control.

Assay [8] has as its system Escherichia coli BL21(DE3). In words: Inhibition of recombinant Escherichia coli BL21(DE3) isoleucyl-tRNA synthetase expressed in Escherichia coli Rosetta 2 (DE3) assessed as reduction in tRNA aminoacylation at 10 uM preincubated for 10 mins in presence of [14C]-isoleucin and tRNA and iPPase followed by ATP addition and measured after 6 mins by scintillation counting method. Particulars: time 16.0 min.

Calls of active or inactive are those of the source. The rule behind the calls is not given here.

Sequence of Serine--tRNA ligase (Escherichia coli (strain K12)) (P0A8L1 whole entry, looked up): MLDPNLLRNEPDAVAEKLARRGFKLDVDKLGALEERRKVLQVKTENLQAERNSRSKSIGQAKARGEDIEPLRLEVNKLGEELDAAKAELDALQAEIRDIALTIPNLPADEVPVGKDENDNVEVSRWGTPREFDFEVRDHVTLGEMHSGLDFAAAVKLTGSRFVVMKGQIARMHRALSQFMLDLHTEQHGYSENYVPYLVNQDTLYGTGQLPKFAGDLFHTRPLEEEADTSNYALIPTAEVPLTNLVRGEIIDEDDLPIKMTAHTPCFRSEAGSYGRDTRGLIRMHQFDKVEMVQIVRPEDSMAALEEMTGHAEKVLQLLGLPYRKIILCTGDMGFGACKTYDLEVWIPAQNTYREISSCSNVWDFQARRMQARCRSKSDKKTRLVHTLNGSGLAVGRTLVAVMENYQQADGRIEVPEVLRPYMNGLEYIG

For `Cn1c(=O)ccn([C@@H]2S[C@H]([C@@H](O)[C@@H](NC(=O)[C@@H](N)CO)C(=O)O)[C@H](O)[C@H]2O)c1=O`, the inhibition (commonly the drop in the measured response relative to a control, in per cent) in assay [1] came out at 80%; in assay [2], 50%.

As to `Cn1c(=O)ccn([C@@H]2S[C@H]([C@H](O)[C@H](NC(=O)[C@@H](N)CC(=O)O)C(=O)O)[C@H](O)[C@H]2O)c1=O`, in assay [3], the inhibition result is “inactive”.

For the compound `Cn1c(=O)ccn([C@@H]2S[C@H]([C@@H](O)[C@@H](NC(=O)[C@@H](N)CC(=O)O)C(=O)O)[C@H](O)[C@H]2O)c1=O`, the IC50 (commonly the point on the concentration scale where inhibition reaches its midpoint) in assay [4] stood at 31 nM. In addition, the inhibition in assay [5] worked out at 60%. Moreover, the inhibition result in assay [6] is “Active”.

`Cn1c(=O)ccn([C@@H]2S[C@H]([C@H](O)[C@H](NC(=O)[C@@H](N)CO)C(=O)O)[C@H](O)[C@H]2O)c1=O`: in assay [7], the inhibition was 25%.

As for `CC[C@H](C)[C@H](N)C(=O)NC(C(=O)O)C(O)[C@H]1S[C@@H](n2ccc(=O)n(C)c2=O)[C@H](O)[C@H]1O` (mixture of isomers), in assay [8], the inhibition entry is “inactive”.

The record behind these values is ChEMBL document CHEMBL4665736, “Synthesis and structural insights into the binding mode of the albomycin δ1 core and its analogues in complex with their target aminoacyl-tRNA synthetase” (Bioorg Med Chem, 2020).
